In patent publication US7094909B2, “HIV protease inhibitors, compositions containing the same, their pharmaceutical uses and materials for their synthesis” (priority 2001, dated 2006) one finds EC50 and Ki data, which are given here for 16 compounds.

Assay [1] has as its system HIV-1 (HIV-1 RF, HIV-1 NL4-3) in CEM-SS / MT-2 cells. Nature of the assay: Cytopathic effect (CPE) inhibition assay (XTT/MTT dye reduction). Particulars: Human immunodeficiency virus 1, NL43; read-out: Ave CPE EC50. It counts as cell-based. In short, it runs like this: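 Readout is XTT reduction (A450, 4 h) after six days of culturing virus-infected (moi 0.025–0.819) or mock-infected CEM-SS/MT-2 cells, 2×10^4 per well, with half-log compound series. Antiviral EC50 and cytotoxic CC50 are relative to uninfected compound-free cells. Therapeutic index is CC50 divided by EC50.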

The subject of assay [2] is HIV-1 NL4-3 or HIV-1 NL4-3(I84V/L90M). The assay is described as follows: Susceptibility assay, p24 ELISA in infected MT-2 cells. It counts as cell-based. Particulars: Human immunodeficiency virus 1, NL43, MT2, read-out: EC50 or IC50 (mM), values without asterisk (EC50). As for the experimental part:
T-cell lines, CEM-SS, and MT-2, and viruses HIV-1 RF and HIV-1 NL4-3 (pNL4-3) were obtained from the National Institutes of Health (AIDS Research and Reference Reagent Program, Bethesda, Md.).
Compounds were tested in phenotypic susceptibility assays at Virologic, Inc., (See Petropoulos C. J., Parkin N. T., Limoli K. L., Lie Y. S., Wrin T., Huang W., Tian H., Smith D., Winslow G. A., Capon D J, Whitcomb J M. 2000, “A novel phenotypic drug susceptibility assay for human immunodeficiency virus type 1,” Antimicrob Agents Chemother 44(4):920–928) or using the assay described here. MT-2 cells were infected with either HIV-1 NL4-3 or HIV-1 NL4-3([…]) and incubated in the presence of serial 0.5 log dilutions of test compounds. Three days later, culture supernatants were collected and virus production, as determined by p24 ELISA, was assayed. Percent inhibition was calculated as p24 concentration in compound-treated samples as compared to infected, compound-free controls. Inhibition of viral replication is determined by measuring reduction in HIV p24 present in the culture supernatant, using a Beckman-Coulter p24HIV-1 Ag EIA kit and following the supplied protocol. Absorbance is read on a MRX microplate reader (Dynex Technologies). The EC50 was calculated as the concentration of compound that effected a decrease in the p24 production by infected, compound-treated cells to 50% of that produced by infected, compound-free cells.

Assay [3] addresses T1, HIV-1 protease (Q7S mutant form) (Human immunodeficiency virus type 1 group M subtype B, UniProt P04585, Q495S).
T1 construct: made in house
The assay is described as follows: HIV-1 Protease RET assay. It counts as biochemical. Conditions: Ave. Ki (nM), RET assay, Q7S enzyme, Morrison tight binding fit. The procedure, abridged: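 Ki values fitted with the Morrison tight-binding equation from steady-state RET cleavage (ex 340, em 490 nm) of 5 μM RE(EDANS)SQNYPIVQK(DABCYL)R. Buffer pH 4.8 acetate, 1M NaCl, 5 mM DTT, 1 mg/ml BSA, 10% DMSO; 2 nM Q7S mutant dimer, 37 °C, 12 min.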

As for `Cc1ccc(F)cc1CNC(=O)[C@H]1N(C(=O)[C@@H](O)[C@H](Cc2ccccc2)NC(=O)c2cccc(O)c2C)CSC12CCCC2` [Example C36, (R)-3-((2S,3S)-2-Hydroxy-3-{[1-(3-hydroxy-2-methyl-phenyl)-methanoyl]-amino}-4-phenyl-butanoyl)-1-thia-3-aza-spiro[4.4]nonane-4-carboxylic acid 5-fluoro-2-methyl-benzylamide], the figures for the EC50 in assay [1] and in assay [2] were 50 nM and 666 nM, respectively. In assay [3], this compound returned a Ki of less than 0.1 nM.
Turning to `Cc1ccccc1CNC(=O)[C@H]1N(C(=O)[C@@H](O)[C@H](Cc2ccccc2)NC(=O)c2cccc(O)c2C)CSC12CCCCC2` [Example C31, 3-(2-Hydroxy-3-{[1-(2-methyl-3-hydroxy-phenyl)-methanoyl]-amino}-4-phenyl-butanoyl)-1-thia-3-aza-spiro[4.5]decane-4-carboxylic acid 2-methyl-benzylamide], the EC50 in assay [1] is 31 nM; in assay [2], 1070 nM. Besides, the Ki in assay [3] was found to be 0.17 nM.
The corresponding values for `Cc1c(O)cccc1C(=O)N[C@@H](Cc1ccccc1)[C@H](O)C(=O)N1CSC(C)(C)[C@H]1C(=O)NCc1ccc2c(c1)CCO2` [Example A9, (R)-3-((2S,3S)-2-Hydroxy-3-{[1-(3-hydroxy-2-methyl-phenyl)-methanoyl]-amino}-4-phenyl-butanoyl)-5,5-dimethyl-thiazolidine-4-carboxylic acid (2,3-dihydro-benzofuran-5-ylmethyl)-amide] are 138 nM, 1080 nM and 0.49 nM.
In the same order, the values of `Cc1c(O)cccc1C(=O)N[C@@H](Cc1ccccc1)[C@H](O)C(=O)N1CSC(C)(C)[C@H]1C(=O)N[C@H]1CCOc2c(F)cc(F)cc21` [Example A55, (R)-3-((2S,3S)-2-Hydroxy-3-{[1-(3-hydroxy-2-methyl-phenyl)-methanoyl]-amino}-4-phenyl-butanoyl)-5,5-dimethyl-thiazolidine-4-carboxylic acid ((S)-6,8-difluoro-chroman-4-yl)-amide] are 54 nM, 798 nM and 0.21 nM.
In the case of `Cc1c(O)cccc1C(=O)N[C@@H](Cc1ccccc1)[C@H](O)C(=O)N1COC(C)(C)[C@H]1C(=O)N[C@@H]1C=CCCC1` [Example C29, (S)-3-((2S,3S)-2-Hydroxy-3-{[1-(3-hydroxy-2-methyl-phenyl)-methanoyl]-amino}-4-phenyl-butanoyl)-5,5-dimethyl-oxazolidine-4-carboxylic acid (S)-cyclohex-2-enylamide], the concentration giving a half-maximal response (EC50) in assay [1] worked out at 142 nM; in assay [2] it was 1360 nM. Moreover, the inhibition constant Ki in assay [3] turned out to be 0.18 nM.
`Cc1c(O)cccc1C(=O)N[C@@H](Cc1ccccc1)[C@H](O)C(=O)N1CC(F)(F)C(C)(C)[C@H]1C(=O)NCC(F)(F)F` [Example C23, (S)-4,4-Difluoro-1-[(2S,3S)-2-hydroxy-3-(3-hydroxy-2-methyl-benzoylamino)-4-phenyl-butyryl]-3,3-dimethyl-pyrrolidine-2-carboxylic acid (2,2,2-trifluoro-ethyl)-amide]: the EC50 in assay [1] was determined as 37 nM; in assay [2], 109 nM. For the same compound, the Ki in assay [3] was less than 0.1 nM.
In the same order, the values of `Cc1ccccc1CNC(=O)[C@H]1N(C(=O)[C@@H](O)[C@H](Cc2ccccc2)NC(=O)c2cccc(O)c2C)CSC12CCCC2` [Example C30, 3-(2-Hydroxy-3-{[1-(3-hydroxy-2-methyl-phenyl)-methanoyl]-amino}-4-phenyl-butanoyl)-1-thia-3-aza-spiro [4.4]nonane-4-carboxylic acid 2-methyl-benzamide] are 18 nM, 273 nM and less than 0.1 nM.
Consider `Cc1c(O)cccc1C(=O)N[C@@H](Cc1ccccc1)[C@H](O)C(=O)N1CC(F)(F)C(C)(C)[C@H]1C(=O)N[C@H]1CCOc2ccccc21` [Example C24, (S)-4,4-Difluoro-1-[(2S,3S)-2-hydroxy-3-(3-hydroxy-2-methyl-benzoylamino)-4-phenyl-butyryl]-3,3-dimethyl-pyrrolidine-2-carboxylic acid (S)-1-benzopyran-4-y], for which the EC50 came to 19 nM in assay [1] and 74 nM in assay [2]. In assay [3], this compound showed a Ki of less than 0.1 nM.
For `Cc1ccccc1CNC(=O)[C@H]1N(C(=O)[C@@H](O)[C@H](Cc2ccccc2)NC(=O)c2cccc(O)c2C)CC(F)(F)C1(C)C` [Example C15, (S)-4,4-Difluoro-1-[(2S,3S)-2-hydroxy-3-(3-hydroxy-2-methyl-benzoylamino)-4-phenyl-butyryl]-3,3-dimethyl-pyrrolidine-2-carboxylic acid 2-methyl-benzylamide], the values for the EC50 in assay [1] and in assay [2] were 25 nM and 57 nM, respectively. Besides, in assay [3], the Ki is less than 0.1 nM.
Turning to `Cc1c(O)cccc1C(=O)N[C@@H](Cc1ccccc1)[C@H](O)C(=O)N1CC(F)(F)C(C)(C)[C@H]1C(=O)NCc1ccc(F)cc1Cl` [Example C18, (S)-4,4-Difluoro-1-((2S,3S)-2-hydroxy-3-{[1-(3-hydroxy-2-methyl-phenyl)-methanoyl]-amino}-4-phenyl-butanoyl)-3,3-dimethyl-pyrrolidine-2-carboxylic acid 2-chloro-4-fluoro-benzylamide], the EC50 in assay [1] is 148 nM; in assay [2] it was 618 nM. For the same compound, in assay [3], the Ki is less than 0.1 nM.
In the case of `Cc1c(O)cccc1C(=O)N[C@@H](Cc1ccccc1)[C@H](O)C(=O)N1CSC(C)(C)[C@H]1C(=O)N[C@H]1CCc2ncccc21` [Example A51, 3-[2-Hydroxy-3-(3-hydroxy-2-methyl-benzoylamino)-4-phenyl-butyryl]-5,5-dimethyl-thiazolidine-4-carboxylic acid (6,7-dihydro-5H-[1]pyrindin-5-yl)-amide], the EC50 in assay [1] was found to be 159 nM; in assay [2] it was 50 nM. The same compound gave a Ki in assay [3] of less than 0.1 nM.
For `Cc1c(O)cccc1C(=O)N[C@@H](Cc1ccccc1)[C@H](O)C(=O)N1CSC2(CCCC2)C1C(=O)N[C@@H]1C=CCCC1` (stereo in doubt) [Example C35, (S)-3-((2S,3S)-2-Hydroxy-3-{[1-(3-hydroxy-2-methyl-phenyl)-methanoyl]-amino}-4-phenyl-butanoyl)-1-thia-3-aza-spiro[4.4]nonane-4-carboxylic acid (S)-cyclohex-2-enylamide], the EC50 was determined as 3 nM in assay [1] and 289 nM in assay [2]. In assay [3], this compound returned a Ki of less than 0.1 nM.
Regarding `Cc1ccccc1CNC(=O)[C@H]1N(C(=O)[C@@H](O)[C@H](Cc2ccccc2)NC(=O)CC(F)(F)F)CSC1(C)C` [Example B19, (R)-3-[(2S,3S)-2-Hydroxy-4-phenyl-3-(3,3,3-trifluoropropionylamino)-butyryl]-5,5-dimethyl-thiazolidine-4-carboxylic acid 2-methyl-benzylamide], the half-maximal effective concentration (EC50) in assay [1] amounted to 1600 nM; in assay [2] it was 1300 nM. Further, the inhibition constant Ki in assay [3] amounted to 1.4 nM.
Take `COc1ccc(CNC(=O)[C@H]2N(C(=O)[C@@H](O)[C@H](Cc3ccccc3)NC(=O)c3cccc(O)c3C)CC(F)(F)C2(C)C)cc1` [Example C25, (S)-4,4-Difluoro-1-[(2S,3S)-2-hydroxy-3-(3-hydroxy-2-methyl-benzoylamino)-4-phenyl-butyryl]-3,3-dimethyl-pyrrolidine-2-carboxylic acid 4-methoxy-benzylamide]: the EC50 turned out to be 31 nM in assay [1] and 68 nM in assay [2]. Further, the inhibition constant (Ki) in assay [3] was less than 0.1 nM.
The corresponding values for `C=CCOC(=O)N[C@@H](Cc1ccccc1)[C@H](O)C(=O)N1CSC(C)(C)[C@H]1C(=O)NCc1ccccc1C` [Example B11, {(1S,2S)-1-Benzyl-3-[(R)-5,5-dimethyl-4-(2-methyl-benzylcarbamoyl)-thiazolidin-3-yl]-2-hydroxy-3-oxo-propyl}-carbamic acid allyl ester] are 567 nM, 2020 nM and 0.86 nM.
In the case of `Cc1c(O)cccc1C(=O)N[C@@H](Cc1ccccc1)[C@H](O)C(=O)N1CSC2(CCC2)[C@H]1C(=O)N[C@@H]1C=CCCC1` [Example C39, (R)-7-((2S,3S)-2-Hydroxy-3-{[1-(3-hydroxy-2-methyl-phenyl)-methanoyl]-amino}-4-phenyl-butanoyl)-5-thia-7-aza-spiro[3.4]octane-8-carboxylic acid (S)-cyclohex-2-enylamide], the values for the EC50 in assay [1] and in assay [2] were 13 nM and 404 nM, respectively. Further, the Ki in assay [3] was less than 0.1 nM.
